Experiments:
[1] = system: microdissected human scalp hair follicles (HF); assay: Hair follicle organ culture model, non-inflammatory condition (ex vivo); type: cell-based
Method: A hair follicle organ culture model was used to analyze the direct effects of Compound 1 on HF physiology in a non-inflammatory condition. Human full thickness scalp skin from four healthy donors was cultured ex vivo and treated in four groups with 11 HF's per groups: 1. vehicle (DMSO control), 2. 10 nM Compound 1, 3. 100 nM Compound 1, 4. 1 μM Compound 1. Before treatment began, […] full length microdissected HF's were isolated, pictures and length measurements were taken of the HF's, and the HF's were cultured in WCM. On Days 1, 3, and 5 pictures of HF elongation were taken, the medium was changed, and treatment in groups 1-4 occurred. Days 2 and 4 were rest days. Additionally, on Day 2 three HF's per group were frozen for RNAseq twenty-four hours after the previous day's treatment. On Day 6, pictures were taken of the HF elongation, the culture was closed, and 8 HF's per group were embedded in optimal cutting temperature compound (OCT compound) for further microscopic immunohistological analysis.

[2] = system: human full thickness scalp skin / hair follicles; assay: Human full thickness scalp skin model, AA-like inflammatory environment, with and without IFNγ (ex vivo); type: cell-based
Method: To evaluate the effects of Compound 1 on hair follicle physiology and pathology in an AA-like inflammatory environment, a human full thickness scalp skin model was used. Scalp biopsies from two healthy donors were cultured ex vivo and treated with tofacitinib (400 nM) and Compound 1 (10 nM, 100 nM, 1000 nM) in the presence and absence of IFNγ, a key pathological cytokine involved in AA development. 5 mm skin cubes with hair were acquired from a donor (Donor 1) and a donor (Donor 2). Ten groups were tested with one skin punch per group: 1. Vehicle (DMSO control) 2. Tofacitinib (400 nM), 3. 10 nM Compound 1, 4. 100 nM Compound 1 5. 1 μM Compound 1, 6. Vehicle (DMSO control)+100 IU IFNγ, 7. Tofacitinib (400 nM)+100 IU IFNγ, 8. 10 nM Compound 1+100 IU IFNγ, 9. 100 nM Compound 1+100 IU IFNγ 10. 1 μM Compound 1+100 IU IFNγ. On Day 0, isolation of 10×6mm punches with hair was performed. On Days 1, 3, and 5 the medium was changed and treatment with groups 1-10 occurred. Days 2 and 4 were rest days. On Day 6, the culture was closed and embedded in OCT Compound for further microscopic analysis.

[3] = Safety and tolerability in clinical studies (Phase 1, healthy adult subjects); type: in vivo, human; conditions: approximately 281 adult subjects, various doses; single doses up to 5 mg, repeated doses up to 4 mg QD
Method: (§1) Compound 1, or a pharmaceutically acceptable salt, solvate, or hydrate thereof, is an orally administered, selective, synthetic sphingosine 1-phosphate (S1P) receptor 1, 4, 5 modulator. […] Its safety and tolerability have been evaluated in Phase 1 studies with healthy adult subjects at single doses up to 5 mg and repeated doses up to 4 mg once daily (QD).

[4] = Phase 2 dose-ranging study in UC patients and open-label extension; type: in vivo, human; conditions: UC patients
Method: as §1

O=C(O)C[C@H]1CCc2c1[nH]c1ccc(OCc3ccc(C4CCCC4)c(C(F)(F)F)c3)cc21 [Compound 1, (R)-2-(7-(4-cyclopentyl-3-(trifluoromethyl)benzyloxy)-1,2,3,4-tetrahydrocyclopenta[b]indol-3-yl)acetic acid]
Hair cycle staging / hair cycle score (anagen phase) ([1]; 10 nM and 100 nM, 6-day HF organ culture, vs vehicle (FIG. 7)): tendentially prolonged the anagen phase | MICA expression (stress signal) ([1]; 100 nM, anagen and catagen HFs combined and anagen HFs alone (FIG. 9)): significantly reduced | RNAseq: genes involved in hair keratinization ([1]; 10 nm and 100 nm groups, HFs frozen 24 h after treatment): significant up-regulation | MHC class I (MHC-I) expression in dermal cup, germinative hair matrix, outer root sheath ([1]; anagen and catagen HFs combined and anagen HFs alone (FIGS. 8a, 8b)): no change | IFNγ-mediated MHC-I up-regulation in the dermal cup of the hair follicle ([2]; +100 IU IFNγ (FIG. 11)): prevented | Hair cycle staging / hair cycle score (anagen) ([2]; Donor 1, without IFNγ (FIG. 10)): tendentially prolonged anagen | Increase of CD8-S1P1+ cells showing lymphocytic morphology ([2]; Donor 2 (FIG. 12)): prevented | Increase of perifollicular CD8+ cells showing lymphocytic morphology ([2]; Donor 2 (FIG. 12)): prevented | Safety and tolerability [3]: safe and well-tolerated | Endoscopic and symptomatic improvements versus placebo ([4]; 2 mg QD for 12 weeks): clinically meaningful and statistically significant | Duration of beneficial effects in open-label extension study ([4]; up to 46 weeks): Sustained beneficial effects
